Molecular target: human mGlu5a receptor (Homo sapiens (Human), UniProt P41594)
Test: Intracellular Ca2+ mobilization assay (mGlu5 PAM)
Type: cell-based
Settings: for EC50: HEK-293 cells stably transfected with human mGlu5a, L-glutamate added at EC20 after pre-incubation with test compound, read-out: EC50 (nM) mGlu5PAM; for Emax: maximal response in % of the maximal stimulatory effect obtained with saturating concentrations of L-glutamate, read-out: Eff. (%)
Method in brief: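 HEK-293 cells stably expressing human mGlu5a at low level were loaded with Fluo-4AM and preincubated 10–30 min at 37 °C with 11-point half-log compound dilutions. L-glutamate was then added at its daily-determined EC20 (typically around 80 μM). Peak fluorescence minus basal, normalized to maximal glutamate effect, was fitted to give EC50, Hill slope and maximal response.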

human mGlu5a receptor, sequence (P41594 other isoform, or with tags, fused parts or gaps): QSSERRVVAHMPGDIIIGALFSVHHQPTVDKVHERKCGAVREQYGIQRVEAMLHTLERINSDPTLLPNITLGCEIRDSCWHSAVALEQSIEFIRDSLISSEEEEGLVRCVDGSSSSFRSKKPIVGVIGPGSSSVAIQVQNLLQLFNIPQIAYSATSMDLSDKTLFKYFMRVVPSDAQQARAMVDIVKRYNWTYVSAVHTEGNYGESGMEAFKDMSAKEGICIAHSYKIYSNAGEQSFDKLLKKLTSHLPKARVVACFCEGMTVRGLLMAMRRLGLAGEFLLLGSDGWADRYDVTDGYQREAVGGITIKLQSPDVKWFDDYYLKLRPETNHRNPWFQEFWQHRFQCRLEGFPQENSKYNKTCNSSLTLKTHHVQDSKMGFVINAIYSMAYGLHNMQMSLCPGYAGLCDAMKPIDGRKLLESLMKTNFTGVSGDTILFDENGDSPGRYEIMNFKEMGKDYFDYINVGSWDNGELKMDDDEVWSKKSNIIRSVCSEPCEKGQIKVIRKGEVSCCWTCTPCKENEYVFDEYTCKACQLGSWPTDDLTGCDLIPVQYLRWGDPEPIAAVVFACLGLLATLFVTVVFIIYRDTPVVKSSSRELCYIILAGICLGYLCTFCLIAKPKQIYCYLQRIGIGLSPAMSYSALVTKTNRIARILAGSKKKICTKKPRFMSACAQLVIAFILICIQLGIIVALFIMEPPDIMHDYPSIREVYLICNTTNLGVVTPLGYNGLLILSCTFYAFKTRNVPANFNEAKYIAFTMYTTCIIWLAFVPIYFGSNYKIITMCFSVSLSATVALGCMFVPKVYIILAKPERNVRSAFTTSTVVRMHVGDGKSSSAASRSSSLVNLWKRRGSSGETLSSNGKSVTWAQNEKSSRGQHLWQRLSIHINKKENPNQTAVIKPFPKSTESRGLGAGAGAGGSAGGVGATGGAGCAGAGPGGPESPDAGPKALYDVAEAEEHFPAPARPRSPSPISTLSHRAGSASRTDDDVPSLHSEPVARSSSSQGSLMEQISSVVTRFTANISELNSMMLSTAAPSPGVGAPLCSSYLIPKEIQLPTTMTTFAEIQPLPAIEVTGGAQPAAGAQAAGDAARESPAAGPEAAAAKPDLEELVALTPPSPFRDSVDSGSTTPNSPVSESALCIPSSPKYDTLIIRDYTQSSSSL

CC1(C)CC(=O)N(c2cnc(C#Cc3cccc(F)c3)cn2)C1 [Example 160]
EC50: 29 nM | Emax: 39%

CC1(C)CCN(c2cnc(C#Cc3cccc(F)c3)cn2)C(=O)C1 [Example 161, 1-(5-((3-Fluorophenyl)ethynyl)pyrazin-2-yl)-4,4-dimethylpiperidin-2-one]
EC50: 29 nM | Emax: 68%

CC1(C)CCN(c2cnc(C#Cc3cccnc3)cn2)C(=O)C1 [Example 162, 4,4-Dimethyl-1-(5-(pyridin-3-ylethynyl)pyrazin-2-yl)piperidin-2-one]
EC50: 681 nM | Emax: 76%

CC1(C)CCN(c2cnc(C#Cc3ccccc3)cn2)C(=O)C1 [Example 163, 4,4-Dimethyl-1-(5-(phenylethynyl)pyrazin-2-yl)piperidin-2-one]
EC50: 69 nM | Emax: 74%

CC1(C)CCN(c2cnc(C#Cc3ccccc3)cn2)C(=O)N1 [Example 164, 4,4-Dimethyl-1-(5-(phenylethynyl)pyrazin-2-yl)tetrahydropyrimidin-2(1H)-one]
EC50: 329 nM | Emax: 89%

CN1C(=O)N(c2cnc(C#Cc3ccccc3)cn2)CCC1(C)C [Example 165, 3,4,4-Trimethyl-1-(5-(phenylethynyl)pyrazin-2-yl)tetrahydropyrimidin-2(1H)-one]
EC50: 36 nM | Emax: 55%

CC1(C)CCN(c2cnc(C#Cc3cccc(F)c3)cn2)C(=O)N1 [Example 166, 1-(5-((3-Fluorophenyl)ethynyl)pyrazin-2-yl)-4,4-dimethyltetrahydropyrimidin-2(1H)-one]
EC50: 140 nM | Emax: 56%

CN1C(=O)N(c2cnc(C#Cc3cccc(F)c3)cn2)CCC1(C)C [Example 167, 1-(5-((3-Fluorophenyl)ethynyl)pyrazin-2-yl)-3,4,4-trimethyltetrahydropyrimidin-2(1H)-one]
EC50: 26 nM | Emax: 54%

CC1(C)CCN(c2cnc(C#Cc3ccccc3)cn2)C(=O)O1 [Example 168, 6,6-Dimethyl-3-(5-(phenylethynyl)pyrazin-2-yl)-1,3-oxazinan-2-one]
EC50: 15 nM | Emax: 41%

CC1(C)CN(c2ccc(C#Cc3ccccc3)cn2)C(=O)CO1 [Example 172, 6,6-Dimethyl-4-(5-phenylethynyl-pyridin-2-yl)-morpholin-3-one]
EC50: 29 nM | Emax: 82%

O=C1CS(=O)(=O)CCN1c1ccc(C#Cc2ccccc2)cn1 [Example 173, 1,1-Dioxo-4-(5-phenylethynyl-pyridin-2-yl)-thiomorpholin-3-one]
EC50: 29 nM | Emax: 82%

Source: patent publication US9315498B2, “Arlethynyl derivatives” (Hoffmann-La Roche Inc., priority 2010, dated 2016)
